SMILES strings stand for the structures. Converted amounts (≈) assume the structure as drawn.

Data set [1] can be described thus: Cu(II) complex formation and stability constants by UV-Vis spectrophotometric titrations. Type of data set: physicochemical. Particulars: for pCu (= −log[Cu(II)]): pH 7.4, c Cu(II) = 1 μM, computed from stability constants. On the procedure:
The complex formation processes of L^1, L^5 and L^6 with Cu(II) ions were studied by UV-Vis spectrophotometry in 30% (v/v) DMSO/H2O using relatively low concentrations (c L = 50–60 μM), due to the limited water solubility of the ligand precursors as well as of the Cu(II) complexes (see thermodynamic solubility data in aqueous media in Table 2 and Table 3). L^1 was selected as the simplest compound of the studied ligand series, whereas L^5 and L^6 were selected to compare with the oxidovanadium(IV) system ([Ribeiro et al., 2022]). The solution stability and stoichiometry of the Cu(II) complexes were determined by the evaluation of the UV-Vis spectra recorded at various pH values (representative spectra are shown for the Cu(II) ‒ L^1 and Cu(II) ‒ L^6 systems in Figures 3A,B and for Cu(II) ‒ L^5 in Supplementary Figure S10A). The computed overall stability constants and pK a values of the complexes are collected in Table 3. The formation of only mono-ligand complexes was found with [Cu(LH)]^+, [Cu(L)], and [Cu(LH‒1)]^‒ (and [Cu(LH‒2)]^2‒ in the case of L^6) compositions, and their computed molar absorbance spectra are shown in Figures 3C, D, Supplementary Figure S10B.
An Agilent Cary 8454 diode array spectrophotometer was used to record the UV-Vis spectra in the range of 200–800 nm. Titrations were carried out with a Metrohm 665 Dosimat burette and an Orion 710A pH-meter equipped with a Metrohm combined electrode. A ionic strength of 0.10 M (KCl) was used to keep the activity coefficients constant. The titrations were performed with 0.10 M carbonate-free KOH solution in a 30% (v/v) DMSO/H2O solvent mixture. […] The average water ionization constant (pKw) is 14.53 ± 0.05 in the 30% (v/v) DMSO/H2O solvent mixture. The pKa values of the ligand precursors and the logβ values for the Cu(II) complexes were determined in 30% (v/v) DMSO/H2O in the same way as it was done in our previous publications (9, 11).
Spectrophotometric titrations were carried out on samples containing the ligands at 50 μM concentration, in the pH range from 2.0 to 11.5 in the absence or the presence of 1, 0.5 or 0.25 equiv. Cu(II) ions, using 10 cm^3 sample volumes. Proton dissociation constants (pKa) of the ligand precursors as well as stoichiometry and stability constants of the Cu(II) complexes (β) were calculated by the computer program PSEQUAD (12). The usual definition of overall (β) and stepwise (K) formation constants is used: […]

For data set [2], the target named is bovine serum albumin (BSA) (Bos taurus, UniProt P02769). As to the kind of experiment: BSA fluorescence quenching. The arrangement: Affinity constant K ± SD: unit not given here. Type of data set: binding. The following applies: fluorescence quenching; HypSpec2014; 1:1 species assumed. On the procedure: To evaluate the interaction of the compounds, both organic and Cu(II) complexes, with bovine serum albumin (BSA) fluorescence spectra were measured. In a typical fluorescence experiment, to a solution of 1.5 μM of BSA in the same buffer, successive aliquots of a stock solution of each compound in DMSO were added directly to the cuvette (optical path 1.0 cm). The fluorescence emission was recorded between 310 and 600 nm with excitation at 295 nm. The final DMSO % was kept below 2% (v/v). The Stern-Volmer plots were built using the emission at 340 nm and blank samples (in the absence of BSA) with the same concentration of the complexes were recorded and subsequently subtracted from the corresponding emission spectra containing the fluorophore. Moreover, the fluorescence emission intensity was corrected for reabsorption and inner filter effects using UV-Vis absorption data recorded for each sample, since all complexes absorb in the measured wavelength range (19, 20).
The interaction of the organic compounds and Cu(II) complexes with BSA was monitored by studying the quenching of albumin’s fluorescence emission with increasing concentrations of the complexes (25). Overall, the intensity of the Trp emission decreases with the addition of the complexes, except for 8 (see Figs. S19). The Stern-Volmer relationship was used to analyse the fluorescence quenching process:
where I0 and I are the fluorescence intensities in the absence and in the presence of quencher, kq is the bimolecular quenching rate, τ0 is the fluorophore lifetime in the absence of the quencher (6.22 ns) (26) and [Q] is the quencher concentration. […] This linear relationship is obeyed for all complexes except 5, where a downward curvature is observed. This can be an indication of two distinct binding sites, corresponding to two populations of fluorophores, one being accessible and other inaccessible or buried inside the protein. In such cases, the Stern-Volmer relation can be modified to (27):
where ΔI = I0 – I, Ka is the Stern-Volmer constant for the accessible fraction and fa is the fraction of accessible fluorophore. […] As first approximation, the total concentration of quencher was used to check the quenching mechanism. […] As all systems presented high absorbance values in the measured range of wavelengths, no excess of quencher was used and, therefore, 1:1 species will be assumed for these interactions.

Another data set deals with A-375 cells. As to the kind of experiment: Sulforhodamine B (SRB) cell viability assay. Particulars: Homo sapiens, 72 h. It is filed as cell-based. How it is done:
(§1) Copper compounds were tested, along with the free ligands and cisplatin as the positive control, for their cytotoxicity on both melanoma (A-375) and lung adenocarcinoma (A-549) cell lines in the concentration range 0.78–50 μM. Following 72 h of incubation, cell viability was measured via sulforhodamine B (SRB) assay (Supplementary Figure S25).
(§2) A-375 cells (ATCC, CRL-3222) were grown in Dulbecco’s Modified Eagle Medium with high glucose (Gibco #11965118) and A-549 (ATCC, CCL-185) cells were grown in Dulbecco’s Modified Eagle Medium F-12 (Gibco #11320033), supplemented with 10% FBS (Gibco, #10500064) and Penicillin-Streptomycin (10,000 U/mL, Gibco, #15140122). Cells were incubated at 37 °C, 5% CO2 incubator and subcultured every 3 days.
(§3) All the tested complexes were dissolved in DMSO (10 mM stock solution), and aliquots were stored at -20 °C, thawed on the experiment day and used only once. For SRB cell viability assay, A-375 and A-549 cells were seeded on 96-well plates (4×10^3 cells/well) and treated with serial dilutions of indicated compounds (with a concentration range of 0-50 μM, 72 h). Trichloroacetic acid (TCA) was added to wells for fixation at a final concentration of 10%, for 1 h at 4 °C. Each well was washed five times with ddH2O, dried, and incubated with 0.4% (w/v) SRB dye (50 µL/well) for 30 min at room temperature. The wells were washed with 1% acetic acid (v/v) five times, and 150 µL of 10 mM Tris solution was added to dissolve the stain. Colorimetric measurements were taken at λ = 564 nm. Viability percentage was calculated as follows: % Cell Viability = [100 × (sample Abs.-blank) / (non-treated control Abs.-blank)].

For another data set, the system named is A-549 cells. Nature of the data set: Sulforhodamine B (SRB) cell viability assay. Type of data set: cell-based. The following applies: Homo sapiens, A549, 72 h. How it is done:
as §1, §2, §3

On the set-up of data set [3]: method as in Ribeiro et al., 2022. The following applies: 30% (v/v) DMSO/H2O; t = 25.0°C; I = 0.1 M (KCl); ref Ribeiro et al., 2022; cited from earlier work.
On the set-up of data set [4]: method as in Ribeiro et al., 2022. Particulars: ligand precursors; pH 7.4; ref Ribeiro et al., 2022; cited from earlier work.
Setting [5] is: Cu(II) complex of the ligand, 30% (v/v) DMSO/H2O, t = 25.0°C, I = 0.10 M (KCl).
The mark [6] stands for this setting: proton dissociation of the Cu(II) complex, 30% (v/v) DMSO/H2O.

Chain of bovine serum albumin (BSA) (P02769 25-607): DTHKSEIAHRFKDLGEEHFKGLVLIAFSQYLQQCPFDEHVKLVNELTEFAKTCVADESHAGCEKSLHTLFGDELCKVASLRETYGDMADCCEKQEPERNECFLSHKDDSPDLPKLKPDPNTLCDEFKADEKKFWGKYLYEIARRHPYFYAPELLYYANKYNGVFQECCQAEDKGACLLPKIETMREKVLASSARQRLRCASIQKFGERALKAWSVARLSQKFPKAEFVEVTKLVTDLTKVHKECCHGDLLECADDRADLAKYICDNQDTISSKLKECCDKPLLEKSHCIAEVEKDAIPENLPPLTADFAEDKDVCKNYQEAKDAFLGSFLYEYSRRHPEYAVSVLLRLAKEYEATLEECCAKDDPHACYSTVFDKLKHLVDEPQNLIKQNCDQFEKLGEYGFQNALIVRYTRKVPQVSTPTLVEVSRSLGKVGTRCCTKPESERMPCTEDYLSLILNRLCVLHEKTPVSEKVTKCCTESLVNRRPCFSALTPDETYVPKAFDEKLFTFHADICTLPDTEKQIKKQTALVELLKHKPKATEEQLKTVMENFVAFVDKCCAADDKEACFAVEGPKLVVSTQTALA

The IC50 is the concentration needed to halve the response being measured. `O=C(N/N=C/c1ccc2cccc(O)c2n1)c1ccccc1` [L^1]: in data set [1] (setting [5]), the “logβ [Cu(L)]” value is listed as 17.79 ± 0.02, the “logβ [Cu(LH)]^+” value turned out to be 23.41 ± 0.02 and the “logβ [Cu(LH‒1)]^‒” value was determined as 7.39 ± 0.03. For the same molecule, the “pCu (= −log[Cu(II)])” value in data set [1] (c L = 1 μM) was 8.96. For the same molecule, in data set [1] (c L = 10 μM), the “pCu (= −log[Cu(II)])” value stood at 12.59. For the same molecule, in data set [1] (setting [6]), the “pK a [Cu(L)]” value was 10.40 and the “pK a [Cu(LH)]^+” value came out at 5.62. Further, the “Affinity constant K ± SD” value in data set [2] was “(4.6 ± 0.2) × 10^5”. Further, in the data set with A-375 cells, the IC50 came to 12.3 ± 0.5 µM. The IC50 in the data set on A-549 cells is more than 50 µM. For the same molecule, in data set [3], the “pK a1” value was 2.24, the “pK a2” value is recorded as 9.51 and the “pK a3” value is on record as 11.45. Further, the “thermodynamic solubility S 7.4” value in data set [4] was 3.7 µM (≈ 1.08 µg/mL).

The record behind these values is article PMC10072326, “Promising anticancer agents based on 8-hydroxyquinoline hydrazone copper(II) complexes” (Frontiers in Chemistry, 2023).
